Assay results as given in patent publication US20220187282A1, “CARDIOMYOCYTE PROLIFERATION” (The Council of the Queensland Institute of Medical Research, priority 2019, published 2022).

Legend:
Type in all cases: biochemical
[1] = molecular target: kinases (Homo sapiens, UniProt P29376); conditions: LTK (TYK1) FRET-Z-Lyte SP; Test Conc(μM):ATP Conc(μM) 1:75
[2] = molecular target: kinases (Homo sapiens, UniProt Q9UM73); conditions: ALK FRET-Z-Lyte SP; Test Conc(μM):ATP Conc(μM) 1:25
[3] = molecular target: kinases (Homo sapiens, UniProt Q96PY6); conditions: NEK1 FRET-Z-Lyte SP; ATP Conc(μM):Test Conc(μM) 1:100
[4] = molecular target: kinases (Homo sapiens, UniProt P08581); conditions: MET (cMet) FRET-Z-Lyte SP; Test Conc(μM):ATP Conc(μM) 1:50
Chain of kinases (Homo sapiens, UniProt P08581) (P08581 25-1390): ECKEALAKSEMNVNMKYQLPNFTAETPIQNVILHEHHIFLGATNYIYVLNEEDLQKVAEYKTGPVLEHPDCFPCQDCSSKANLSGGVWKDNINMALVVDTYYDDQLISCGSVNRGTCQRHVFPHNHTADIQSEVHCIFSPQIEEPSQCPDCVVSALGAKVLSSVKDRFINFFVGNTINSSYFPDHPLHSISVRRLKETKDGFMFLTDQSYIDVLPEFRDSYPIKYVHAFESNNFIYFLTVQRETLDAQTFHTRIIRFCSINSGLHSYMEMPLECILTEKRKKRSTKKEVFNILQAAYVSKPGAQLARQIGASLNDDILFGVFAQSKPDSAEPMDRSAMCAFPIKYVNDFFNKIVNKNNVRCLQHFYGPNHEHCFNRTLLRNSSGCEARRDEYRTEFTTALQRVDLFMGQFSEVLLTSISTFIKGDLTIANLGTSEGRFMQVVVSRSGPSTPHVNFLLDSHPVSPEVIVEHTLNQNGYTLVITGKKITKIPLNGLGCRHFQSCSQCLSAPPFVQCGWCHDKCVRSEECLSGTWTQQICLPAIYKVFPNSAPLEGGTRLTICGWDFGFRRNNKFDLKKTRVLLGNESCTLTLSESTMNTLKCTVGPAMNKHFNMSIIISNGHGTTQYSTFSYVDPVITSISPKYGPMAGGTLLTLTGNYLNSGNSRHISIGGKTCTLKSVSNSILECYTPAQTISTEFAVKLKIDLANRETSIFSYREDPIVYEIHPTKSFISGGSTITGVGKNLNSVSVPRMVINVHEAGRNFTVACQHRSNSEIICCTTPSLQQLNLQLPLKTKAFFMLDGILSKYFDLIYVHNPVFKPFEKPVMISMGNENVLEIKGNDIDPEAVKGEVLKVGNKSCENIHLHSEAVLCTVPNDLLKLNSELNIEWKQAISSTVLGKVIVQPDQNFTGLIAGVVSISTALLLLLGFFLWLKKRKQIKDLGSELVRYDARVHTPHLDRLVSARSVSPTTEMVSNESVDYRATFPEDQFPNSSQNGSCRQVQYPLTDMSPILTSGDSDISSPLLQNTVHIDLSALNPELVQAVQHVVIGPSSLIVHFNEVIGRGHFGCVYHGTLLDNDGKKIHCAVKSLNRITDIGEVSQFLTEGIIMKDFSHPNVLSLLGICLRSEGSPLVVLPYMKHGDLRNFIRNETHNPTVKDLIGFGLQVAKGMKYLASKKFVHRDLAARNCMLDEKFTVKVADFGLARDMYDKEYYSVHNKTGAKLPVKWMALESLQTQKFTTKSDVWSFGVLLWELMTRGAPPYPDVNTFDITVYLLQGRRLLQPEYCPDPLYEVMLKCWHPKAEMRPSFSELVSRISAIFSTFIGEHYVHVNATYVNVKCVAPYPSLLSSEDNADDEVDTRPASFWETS

[5] = molecular target: kinases (Homo sapiens, UniProt P22612); conditions: PRKACG FRET-Lantha SP; Test Conc(μM) 1
[6] = molecular target: kinases (Homo sapiens, UniProt Q99558); conditions: MAP3K14 (NIK) FRET-Lantha SP; Test Conc(μM) 1
[7] = molecular target: kinases (Homo sapiens, UniProt Q6VAB6); conditions: KSR2 FRET-Z-Lyte SP; Test Conc(μM):ATP Conc(μM) 1:10
[8] = molecular target: kinases (Homo sapiens, UniProt Q04912); conditions: MST1R (RON) FRET-Z-Lyte SP; Test Conc(μM):ATP Conc(μM) 1:10
Chain of kinases (Homo sapiens, UniProt Q04912) (Q04912 25-1400): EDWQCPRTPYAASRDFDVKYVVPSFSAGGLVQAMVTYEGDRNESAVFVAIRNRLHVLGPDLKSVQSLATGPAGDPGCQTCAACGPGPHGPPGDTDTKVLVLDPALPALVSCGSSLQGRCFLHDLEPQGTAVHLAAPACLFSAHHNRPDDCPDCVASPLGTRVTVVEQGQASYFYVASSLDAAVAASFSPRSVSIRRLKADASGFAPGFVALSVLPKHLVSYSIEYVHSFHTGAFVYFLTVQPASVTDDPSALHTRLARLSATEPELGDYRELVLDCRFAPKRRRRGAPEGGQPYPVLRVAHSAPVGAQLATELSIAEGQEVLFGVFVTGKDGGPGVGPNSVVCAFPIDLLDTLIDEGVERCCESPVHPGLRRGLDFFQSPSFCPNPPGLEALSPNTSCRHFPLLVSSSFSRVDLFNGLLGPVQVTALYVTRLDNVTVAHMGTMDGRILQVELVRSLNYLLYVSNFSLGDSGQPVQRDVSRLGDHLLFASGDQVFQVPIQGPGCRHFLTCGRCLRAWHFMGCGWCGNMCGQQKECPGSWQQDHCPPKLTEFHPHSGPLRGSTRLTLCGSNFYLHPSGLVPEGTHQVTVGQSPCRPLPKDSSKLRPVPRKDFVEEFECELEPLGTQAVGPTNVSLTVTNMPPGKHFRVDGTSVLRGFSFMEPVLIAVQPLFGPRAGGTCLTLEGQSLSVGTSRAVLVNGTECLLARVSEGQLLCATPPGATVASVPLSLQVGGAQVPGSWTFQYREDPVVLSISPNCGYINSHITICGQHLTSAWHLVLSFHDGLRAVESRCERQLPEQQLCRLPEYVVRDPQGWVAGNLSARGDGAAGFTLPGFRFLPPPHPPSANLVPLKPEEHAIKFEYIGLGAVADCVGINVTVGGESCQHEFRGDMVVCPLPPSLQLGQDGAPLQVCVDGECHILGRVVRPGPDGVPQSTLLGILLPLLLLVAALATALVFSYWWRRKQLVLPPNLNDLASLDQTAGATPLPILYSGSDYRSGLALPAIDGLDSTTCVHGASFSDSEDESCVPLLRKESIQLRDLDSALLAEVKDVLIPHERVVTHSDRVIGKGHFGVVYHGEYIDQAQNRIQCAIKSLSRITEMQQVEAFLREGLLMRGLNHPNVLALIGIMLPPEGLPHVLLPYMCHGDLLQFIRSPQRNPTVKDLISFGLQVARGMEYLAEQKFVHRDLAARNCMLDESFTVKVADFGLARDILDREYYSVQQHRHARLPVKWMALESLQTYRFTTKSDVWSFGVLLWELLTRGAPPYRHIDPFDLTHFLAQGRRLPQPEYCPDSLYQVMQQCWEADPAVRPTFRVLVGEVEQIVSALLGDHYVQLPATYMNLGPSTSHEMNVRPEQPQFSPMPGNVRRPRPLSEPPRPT

[9] = molecular target: kinases (Homo sapiens, UniProt Q92918); conditions: MAP4K1 (HPK1) FRET-Lantha SP; Test Conc(μM) 1
Chain of kinases (Homo sapiens, UniProt Q92918) (Q92918 whole entry): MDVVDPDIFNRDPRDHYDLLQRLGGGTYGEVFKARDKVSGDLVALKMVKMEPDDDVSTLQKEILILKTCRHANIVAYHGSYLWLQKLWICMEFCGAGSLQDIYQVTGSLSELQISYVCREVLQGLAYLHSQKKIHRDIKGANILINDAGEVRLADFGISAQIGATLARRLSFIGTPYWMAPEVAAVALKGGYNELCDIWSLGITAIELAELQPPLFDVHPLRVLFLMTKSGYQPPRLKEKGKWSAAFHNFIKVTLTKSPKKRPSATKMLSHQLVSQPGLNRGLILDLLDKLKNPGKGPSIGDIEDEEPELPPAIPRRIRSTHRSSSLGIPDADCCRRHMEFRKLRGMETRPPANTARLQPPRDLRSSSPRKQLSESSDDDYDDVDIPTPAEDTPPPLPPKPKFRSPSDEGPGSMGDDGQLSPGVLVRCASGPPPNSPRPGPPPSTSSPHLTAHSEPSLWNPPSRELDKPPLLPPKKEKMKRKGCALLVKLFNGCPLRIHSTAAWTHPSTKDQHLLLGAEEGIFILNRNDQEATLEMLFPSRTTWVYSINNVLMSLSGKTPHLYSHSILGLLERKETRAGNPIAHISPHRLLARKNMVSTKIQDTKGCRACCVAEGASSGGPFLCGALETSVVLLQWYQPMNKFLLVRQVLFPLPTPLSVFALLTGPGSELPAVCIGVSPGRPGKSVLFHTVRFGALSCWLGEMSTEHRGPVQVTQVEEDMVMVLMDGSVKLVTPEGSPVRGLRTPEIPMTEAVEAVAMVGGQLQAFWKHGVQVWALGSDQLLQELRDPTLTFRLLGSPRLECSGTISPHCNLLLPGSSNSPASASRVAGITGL

[10] = molecular target: kinases (Homo sapiens, UniProt Q96L34); conditions: MARK4 FRET-Z-Lyte SP; Test Conc(μM):ATP Conc(μM) 1:10
[11] = molecular target: kinases (Homo sapiens, UniProt Q9H0K1); conditions: SNF1LK2 FRET-Z-Lyte SP; Test Conc(μM):ATP Conc(μM) 1:50
[12] = molecular target: kinases (Homo sapiens, UniProt Q9BUB5); conditions: MKNK1 (MNK1) *Mn* Z-Lyte SP; Test Conc(μM):ATP Conc(μM) 1:100
[13] = molecular target: kinases (Homo sapiens, UniProt P43250); conditions: GRK6 FRET-Z-Lyte SP; Test Conc(μM):ATP Conc(μM) 1:10
[14] = molecular target: kinases (Homo sapiens, UniProt P48736); conditions: PIK3CG (p110 gamma) Adapta SP; Test Conc(μM):ATP Conc(μM) 1:25
[15] = molecular target: kinases (Homo sapiens, UniProt Q96BR1); conditions: SGKL (SGK3) FRET-Z-Lyte SP; Test Conc(μM):ATP Conc(μM) 1:10
[16] = molecular target: kinases (Homo sapiens, UniProt P51817); conditions: PRKX FRET-Z-Lyte SP; Test Conc(μM):ATP Conc(μM) 1:10
Chain of kinases (Homo sapiens, UniProt P51817) (P51817 whole entry): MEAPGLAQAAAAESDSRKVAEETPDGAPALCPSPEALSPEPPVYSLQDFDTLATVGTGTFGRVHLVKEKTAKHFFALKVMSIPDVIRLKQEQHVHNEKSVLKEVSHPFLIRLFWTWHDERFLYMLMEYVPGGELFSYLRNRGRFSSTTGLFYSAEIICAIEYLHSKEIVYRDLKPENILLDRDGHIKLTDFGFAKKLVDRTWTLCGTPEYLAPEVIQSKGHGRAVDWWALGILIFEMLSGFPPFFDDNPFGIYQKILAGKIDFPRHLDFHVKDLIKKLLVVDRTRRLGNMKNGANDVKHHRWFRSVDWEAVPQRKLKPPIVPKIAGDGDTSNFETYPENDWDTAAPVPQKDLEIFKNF

[17] = molecular target: kinases (Homo sapiens, UniProt P53667); conditions: LIMK1 FRET-Lantha SP; Test Conc(μM) 1
[18] = molecular target: kinases (Homo sapiens, UniProt Q9UQM7); conditions: CAMK2A FRET-Z-Lyte SP; Test Conc(μM):ATP Conc(μM) 1:10
Chain of kinases (Homo sapiens, UniProt Q9UQM7) (Q9UQM7 whole entry): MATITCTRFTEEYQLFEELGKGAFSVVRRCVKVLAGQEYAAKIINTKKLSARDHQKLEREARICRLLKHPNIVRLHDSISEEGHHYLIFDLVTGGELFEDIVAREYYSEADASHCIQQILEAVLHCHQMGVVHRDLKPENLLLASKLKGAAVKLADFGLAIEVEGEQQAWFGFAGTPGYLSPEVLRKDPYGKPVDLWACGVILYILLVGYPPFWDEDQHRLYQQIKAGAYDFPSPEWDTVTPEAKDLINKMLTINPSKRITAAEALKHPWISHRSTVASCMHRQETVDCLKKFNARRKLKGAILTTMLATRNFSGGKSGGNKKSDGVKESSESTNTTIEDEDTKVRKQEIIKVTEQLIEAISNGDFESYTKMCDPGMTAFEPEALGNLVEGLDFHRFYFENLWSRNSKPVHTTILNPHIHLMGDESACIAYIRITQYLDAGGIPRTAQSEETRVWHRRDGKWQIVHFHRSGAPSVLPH

[19] = molecular target: kinases (Homo sapiens, UniProt Q08345); conditions: DDR1 FRET-Lantha SP; Test Conc(μM) 1
[20] = molecular target: kinases (Homo sapiens, UniProt P36894); conditions: BMPR1A (ALK3) FRET-Lantha SP; Test Conc(μM) 1
Chain of kinases (Homo sapiens, UniProt P36894) (P36894 24-532): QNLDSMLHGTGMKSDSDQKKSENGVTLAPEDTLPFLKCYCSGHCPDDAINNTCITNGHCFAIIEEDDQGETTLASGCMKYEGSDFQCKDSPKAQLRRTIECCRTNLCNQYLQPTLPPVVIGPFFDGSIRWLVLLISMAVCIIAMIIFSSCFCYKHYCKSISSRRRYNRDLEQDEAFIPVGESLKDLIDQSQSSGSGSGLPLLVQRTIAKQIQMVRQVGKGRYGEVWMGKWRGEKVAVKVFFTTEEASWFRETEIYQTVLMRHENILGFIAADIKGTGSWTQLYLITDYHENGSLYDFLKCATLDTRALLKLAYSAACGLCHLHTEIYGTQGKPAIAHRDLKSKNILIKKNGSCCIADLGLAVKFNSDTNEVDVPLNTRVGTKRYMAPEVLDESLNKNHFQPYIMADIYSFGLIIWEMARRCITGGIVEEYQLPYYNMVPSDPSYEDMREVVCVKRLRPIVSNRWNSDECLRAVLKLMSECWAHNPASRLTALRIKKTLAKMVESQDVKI

[21] = molecular target: kinases (Homo sapiens, UniProt P32298); conditions: GRK4 FRET-Z-Lyte SP; Test Conc(μM):ATP Conc(μM) 1:10
[22] = molecular target: kinases (Homo sapiens, UniProt P16234); conditions: PDGFRA *Mn* FRET-Z-Lyte SP; Test Conc(μM):ATP Conc(μM) 1:10
[23] = molecular target: kinases (Homo sapiens, UniProt O75385); conditions: ULK1 FRET-Lantha SP; Test Conc(μM) 1
[24] = molecular target: kinases (Homo sapiens, UniProt Q9UF33); conditions: EPHA6 FRET-Lantha SP; Test Conc(μM) 1
[25] = molecular target: kinases (Homo sapiens, UniProt O96017); conditions: CHEK2 (CHK2) FRET-Z-Lyte SP; Test Conc(μM):ATP Conc(μM) 1:75
[26] = molecular target: kinases (Homo sapiens, UniProt P30530); conditions: AXL FRET-Z-Lyte SP; Test Conc(μM):ATP Conc(μM) 1:75
[27] = molecular target: kinases (Homo sapiens, UniProt O00238); conditions: BMPR1B (ALK6) FRET-Lantha SP; Test Conc(μM) 1
[28] = molecular target: kinases (Homo sapiens, UniProt O75676); conditions: RPS6KA4 (MSK2) FRET-Z-Lyte SP; Test Conc(μM):ATP Conc(μM) 1:10
[29] = molecular target: kinases (Homo sapiens, UniProt Q15569); conditions: TESK1 FRET-Lantha SP; Test Conc(μM) 1

SMILES	Mean Inhib (%) [1] [%]	Mean Inhib (%) [2] [%]	Mean Inhib (%) [3] [%]	Mean Inhib (%) [4] [%]	Mean Inhib (%) [5] [%]	Mean Inhib (%) [6] [%]	Mean Inhib (%) [7] [%]	Mean Inhib (%) [8] [%]	Mean Inhib (%) [9] [%]	Mean Inhib (%) [10] [%]	Mean Inhib (%) [11] [%]	Mean Inhib (%) [12] [%]	Mean Inhib (%) [13] [%]	Mean Inhib (%) [14] [%]	Mean Inhib (%) [15] [%]	Mean Inhib (%) [16] [%]	Mean Inhib (%) [17] [%]	Mean Inhib (%) [18] [%]	Mean Inhib (%) [19] [%]	Mean Inhib (%) [20] [%]	other results
Cc1ccc(NC(=O)c2ccnc(N3CCOCC3)c2)cc1Nc1ccnc(N2CC(C)OC(C)C2)n1 (stereo not shown) [compound 3]	−6.4	11.9	7.0	0.4	0.7	−1.3	3.9	−8.2	−1.6	0.2	15.9	5.3	0.8	7.4	13.3	−3.2	2.2	1.0	82.4	−1.5	Mean Inhib (%) [21]: 0.0%; Mean Inhib (%) [22]: 2.4%; Mean Inhib (%) [23]: 1.6%; Mean Inhib (%) [24]: 1.9%; Mean Inhib (%) [25]: 10.2%; Mean Inhib (%) [26]: −2.7%; Mean Inhib (%) [27]: 11.9%; Mean Inhib (%) [28]: −0.8%; Mean Inhib (%) [29]: −2.5%
Cc1cc(Oc2ccnc(Nc3ccc(S(N)(=O)=O)cc3)c2)c(-c2ccccn2)nc1C [compound 65]	−3.9	4.2	0.2	2.5	2.2	4.9	1.6	5.3	11.3	1.4	10.7	1.5	2.1	9.1	4.7	1.8	1.8	−3.3	1.7	83.6	Mean Inhib (%) [21]: 16.3%; Mean Inhib (%) [22]: 7.6%; Mean Inhib (%) [23]: 0.1%; Mean Inhib (%) [24]: 54.2%; Mean Inhib (%) [25]: 0.4%; Mean Inhib (%) [26]: 1.1%; Mean Inhib (%) [27]: 107.0%; Mean Inhib (%) [28]: 5.3%; Mean Inhib (%) [29]: 15.5%
